# Article PMC4767141, “Discovery of Potent, Orally Bioavailable, Small-Molecule Inhibitors of WNT Signaling from a Cell-Based Pathway Screen” (Journal of Medicinal Chemistry, 2015)
# Assays:
# LOK = target: T1, LOK (Homo sapiens, UniProt O94804); experiment: Millipore kinase panel; assay type: biochemical; settings: read-out: % Control
# T1 construct: purchased Millipore KinaseProfiler (kinases); Cerep (receptors and ion channels)
# EGFR = target: T2, EGFR (Homo sapiens, UniProt P00533); experiment: Millipore kinase panel; assay type: biochemical; settings: read-out: % Control
# T2 construct: purchased Millipore KinaseProfiler (kinases); Cerep (receptors and ion channels)
# MELK = target: T3, MELK (Homo sapiens, UniProt Q14680); experiment: Millipore kinase panel; assay type: biochemical; settings: read-out: % Control
# T3 construct: purchased Millipore KinaseProfiler (kinases); Cerep (receptors and ion channels)
# EPHB2 = target: T4, EPHB2 (Homo sapiens, UniProt P29323); experiment: Millipore kinase panel; assay type: biochemical; settings: read-out: % Control
# T4 construct: purchased Millipore KinaseProfiler (kinases); Cerep (receptors and ion channels)
# A2A (h) = target: T5, A2A (h) (Homo sapiens, UniProt P29274); experiment: CEREP binding panel; settings: agonist radioligand, read-out: % Inhibition of Control Specific Binding
# T5 construct: purchased Millipore KinaseProfiler (kinases); Cerep (receptors and ion channels)
# JNK3 = target: T6, JNK3 (Homo sapiens, UniProt P53779); experiment: Millipore kinase panel; assay type: biochemical; settings: read-out: % Control
# T6 construct: purchased Millipore KinaseProfiler (kinases); Cerep (receptors and ion channels)
# EEF-2K = target: T7, EEF-2K (Homo sapiens, UniProt O00418); experiment: Millipore kinase panel; assay type: biochemical; settings: read-out: % Control
# T7 construct: purchased Millipore KinaseProfiler (kinases); Cerep (receptors and ion channels)
# FLT3 = target: T8, FLT3 (Homo sapiens, UniProt P36888); experiment: Millipore kinase panel; assay type: biochemical; settings: read-out: % Control
# T8 construct: purchased Millipore KinaseProfiler (kinases); Cerep (receptors and ion channels)
# CDK3/CYCLINE = target: T9, CDK3/CYCLINE (Homo sapiens, UniProt Q00526); experiment: Millipore kinase panel; assay type: biochemical; settings: read-out: % Control
# T9 construct: purchased Millipore KinaseProfiler (kinases); Cerep (receptors and ion channels)
# CKIT = target: T10, CKIT (Homo sapiens, UniProt P10721); experiment: Millipore kinase panel; assay type: biochemical; settings: read-out: % Control
# T10 construct: purchased Millipore KinaseProfiler (kinases); Cerep (receptors and ion channels)
# ROS = target: T11, ROS (Homo sapiens, UniProt P08922); experiment: Millipore kinase panel; assay type: biochemical; settings: read-out: % Control
# T11 construct: purchased Millipore KinaseProfiler (kinases); Cerep (receptors and ion channels)
# CDK2/CYCLINA = target: T12, CDK2/CYCLINA (Homo sapiens, UniProt P24941); experiment: Millipore kinase panel; assay type: biochemical; settings: read-out: % Control
# T12 construct: purchased Millipore KinaseProfiler (kinases); Cerep (receptors and ion channels)
# IRR = target: T13, IRR (Homo sapiens, UniProt P14616); experiment: Millipore kinase panel; assay type: biochemical; settings: read-out: % Control
# T13 construct: purchased Millipore KinaseProfiler (kinases); Cerep (receptors and ion channels)
# CB1 (h) = target: T14, CB1 (h) (Homo sapiens, UniProt P21554); experiment: CEREP binding panel; settings: 10 μM, agonist radioligand
# T14 construct: purchased Millipore KinaseProfiler (kinases); Cerep (receptors and ion channels)
# SRPK2 = target: T15, SRPK2 (Homo sapiens, UniProt P78362); experiment: Millipore kinase panel; assay type: biochemical; settings: read-out: % Control
# T15 construct: purchased Millipore KinaseProfiler (kinases); Cerep (receptors and ion channels)
# ROCK-I = target: T16, ROCK-I (Homo sapiens, UniProt Q13464); experiment: Millipore kinase panel; assay type: biochemical; settings: read-out: % Control
# T16 construct: purchased Millipore KinaseProfiler (kinases); Cerep (receptors and ion channels)
# ASK1 = target: T17, ASK1 (Homo sapiens, UniProt Q99683); experiment: Millipore kinase panel; assay type: biochemical; settings: read-out: % Control
# T17 construct: purchased Millipore KinaseProfiler (kinases); Cerep (receptors and ion channels)
# FGFR1 = target: T18, FGFR1 (Homo sapiens, UniProt P11362); experiment: Millipore kinase panel; assay type: biochemical; settings: read-out: % Control
# T18 construct: purchased Millipore KinaseProfiler (kinases); Cerep (receptors and ion channels)
# NEK2 = target: T19, NEK2 (Homo sapiens, UniProt P51955); experiment: Millipore kinase panel; assay type: biochemical; settings: read-out: % Control
# T19 construct: purchased Millipore KinaseProfiler (kinases); Cerep (receptors and ion channels)
# M1 (h) = target: T20, M1 (h) (Homo sapiens, UniProt P11229); experiment: CEREP binding panel; settings: antagonist radioligand, read-out: % Inhibition of Control Specific Binding
# T20 construct: purchased Millipore KinaseProfiler (kinases); Cerep (receptors and ion channels)
# PHKGAMMA2 = target: T21, PHKGAMMA2 (Homo sapiens, UniProt P15735); experiment: Millipore kinase panel; assay type: biochemical; settings: read-out: % Control
# T21 construct: purchased Millipore KinaseProfiler (kinases); Cerep (receptors and ion channels)
# NK2 (h) = target: T22, NK2 (h) (Homo sapiens, UniProt P21452); experiment: CEREP binding panel; settings: agonist radioligand, read-out: % Inhibition of Control Specific Binding
# T22 construct: purchased Millipore KinaseProfiler (kinases); Cerep (receptors and ion channels)
# RSK3 = target: T23, RSK3 (Homo sapiens, UniProt Q15349); experiment: Millipore kinase panel; assay type: biochemical; settings: read-out: % Control
# T23 construct: purchased Millipore KinaseProfiler (kinases); Cerep (receptors and ion channels)
# PTK5 = target: T24, PTK5 (Homo sapiens, UniProt P42685); experiment: Millipore kinase panel; assay type: biochemical; settings: read-out: % Control
# T24 construct: purchased Millipore KinaseProfiler (kinases); Cerep (receptors and ion channels)
# MKK7BETA = target: T25, MKK7BETA (Homo sapiens, UniProt O14733); experiment: Millipore kinase panel; assay type: biochemical; settings: read-out: % Control
# T25 construct: purchased Millipore KinaseProfiler (kinases); Cerep (receptors and ion channels)
# BRSK2 = target: T26, BRSK2 (Homo sapiens, UniProt Q8IWQ3); experiment: Millipore kinase panel; assay type: biochemical; settings: read-out: % Control
# T26 construct: purchased Millipore KinaseProfiler (kinases); Cerep (receptors and ion channels)
# FLT1 = target: T27, FLT1 (Homo sapiens, UniProt P17948); experiment: Millipore kinase panel; assay type: biochemical; settings: read-out: % Control
# T27 construct: purchased Millipore KinaseProfiler (kinases); Cerep (receptors and ion channels)
# κ (KOP) = target: T28, κ (KOP) (Rattus norvegicus, UniProt P34975); experiment: CEREP binding panel; settings: 10 μM, agonist radioligand
# T28 construct: purchased Millipore KinaseProfiler (kinases); Cerep (receptors and ion channels)
# Na+ channel (site 2) = experiment: CEREP binding panel; settings: 10 μM, antagonist radioligand
# DAPK2 = target: T29, DAPK2 (Homo sapiens, UniProt Q9UIK4); experiment: Millipore kinase panel; assay type: biochemical; settings: read-out: % Control
# T29 construct: purchased Millipore KinaseProfiler (kinases); Cerep (receptors and ion channels)
# M3 (h) = target: T30, M3 (h) (Homo sapiens, UniProt P20309); experiment: CEREP binding panel; settings: antagonist radioligand, read-out: % Inhibition of Control Specific Binding
# T30 construct: purchased Millipore KinaseProfiler (kinases); Cerep (receptors and ion channels)
# MSSK1 = target: T31, MSSK1 (Homo sapiens, UniProt Q9UPE1); experiment: Millipore kinase panel; assay type: biochemical; settings: read-out: % Control
# T31 construct: purchased Millipore KinaseProfiler (kinases); Cerep (receptors and ion channels)
# TBK1 = target: T32, TBK1 (Homo sapiens, UniProt Q9UHD2); experiment: Millipore kinase panel; assay type: biochemical; settings: read-out: % Control
# T32 construct: purchased Millipore KinaseProfiler (kinases); Cerep (receptors and ion channels)
# FLT4 = target: T33, FLT4 (Homo sapiens, UniProt P35916); experiment: Millipore kinase panel; assay type: biochemical; settings: read-out: % Control
# T33 construct: purchased Millipore KinaseProfiler (kinases); Cerep (receptors and ion channels)
# AT1 (h) = target: T34, AT1 (h) (Homo sapiens, UniProt P30556); experiment: CEREP binding panel; settings: antagonist radioligand, read-out: % Inhibition of Control Specific Binding
# T34 construct: purchased Millipore KinaseProfiler (kinases); Cerep (receptors and ion channels)
# TRKA = target: T35, TRKA (Homo sapiens, UniProt P04629); experiment: Millipore kinase panel; assay type: biochemical; settings: read-out: % Control
# T35 construct: purchased Millipore KinaseProfiler (kinases); Cerep (receptors and ion channels)
# MT1 (ML1A) (h) = target: T36, MT1 (ML1A) (h) (Homo sapiens, UniProt P48039); experiment: CEREP binding panel; settings: agonist radioligand, read-out: % Inhibition of Control Specific Binding
# T36 construct: purchased Millipore KinaseProfiler (kinases); Cerep (receptors and ion channels)
# WNK3 = target: T37, WNK3 (Homo sapiens, UniProt Q9BYP7); experiment: Millipore kinase panel; assay type: biochemical; settings: read-out: % Control
# T37 construct: purchased Millipore KinaseProfiler (kinases); Cerep (receptors and ion channels)
# MRCKALPHA = target: T38, MRCKALPHA (Homo sapiens, UniProt Q5VT25); experiment: Millipore kinase panel; assay type: biochemical; settings: read-out: % Control
# T38 construct: purchased Millipore KinaseProfiler (kinases); Cerep (receptors and ion channels)
# PAK2 = target: T39, PAK2 (Homo sapiens, UniProt Q13177); experiment: Millipore kinase panel; assay type: biochemical; settings: read-out: % Control
# T39 construct: purchased Millipore KinaseProfiler (kinases); Cerep (receptors and ion channels)
# MAPKAP-K3 = target: T40, MAPKAP-K3 (Homo sapiens, UniProt Q16644); experiment: Millipore kinase panel; assay type: biochemical; settings: read-out: % Control
# T40 construct: purchased Millipore KinaseProfiler (kinases); Cerep (receptors and ion channels)
# GRK7 = target: T41, GRK7 (Homo sapiens, UniProt Q8WTQ7); experiment: Millipore kinase panel; assay type: biochemical; settings: read-out: % Control
# T41 construct: purchased Millipore KinaseProfiler (kinases); Cerep (receptors and ion channels)
# CHK1 = target: T42, CHK1 (Homo sapiens, UniProt O14757); experiment: Millipore kinase panel; assay type: biochemical; settings: read-out: % Control
# T42 construct: purchased Millipore KinaseProfiler (kinases); Cerep (receptors and ion channels)
# ALK4 = target: T43, ALK4 (Homo sapiens, UniProt P36896); experiment: Millipore kinase panel; assay type: biochemical; settings: read-out: % Control
# T43 construct: purchased Millipore KinaseProfiler (kinases); Cerep (receptors and ion channels)
# T38 sequence (Q5VT25 whole entry): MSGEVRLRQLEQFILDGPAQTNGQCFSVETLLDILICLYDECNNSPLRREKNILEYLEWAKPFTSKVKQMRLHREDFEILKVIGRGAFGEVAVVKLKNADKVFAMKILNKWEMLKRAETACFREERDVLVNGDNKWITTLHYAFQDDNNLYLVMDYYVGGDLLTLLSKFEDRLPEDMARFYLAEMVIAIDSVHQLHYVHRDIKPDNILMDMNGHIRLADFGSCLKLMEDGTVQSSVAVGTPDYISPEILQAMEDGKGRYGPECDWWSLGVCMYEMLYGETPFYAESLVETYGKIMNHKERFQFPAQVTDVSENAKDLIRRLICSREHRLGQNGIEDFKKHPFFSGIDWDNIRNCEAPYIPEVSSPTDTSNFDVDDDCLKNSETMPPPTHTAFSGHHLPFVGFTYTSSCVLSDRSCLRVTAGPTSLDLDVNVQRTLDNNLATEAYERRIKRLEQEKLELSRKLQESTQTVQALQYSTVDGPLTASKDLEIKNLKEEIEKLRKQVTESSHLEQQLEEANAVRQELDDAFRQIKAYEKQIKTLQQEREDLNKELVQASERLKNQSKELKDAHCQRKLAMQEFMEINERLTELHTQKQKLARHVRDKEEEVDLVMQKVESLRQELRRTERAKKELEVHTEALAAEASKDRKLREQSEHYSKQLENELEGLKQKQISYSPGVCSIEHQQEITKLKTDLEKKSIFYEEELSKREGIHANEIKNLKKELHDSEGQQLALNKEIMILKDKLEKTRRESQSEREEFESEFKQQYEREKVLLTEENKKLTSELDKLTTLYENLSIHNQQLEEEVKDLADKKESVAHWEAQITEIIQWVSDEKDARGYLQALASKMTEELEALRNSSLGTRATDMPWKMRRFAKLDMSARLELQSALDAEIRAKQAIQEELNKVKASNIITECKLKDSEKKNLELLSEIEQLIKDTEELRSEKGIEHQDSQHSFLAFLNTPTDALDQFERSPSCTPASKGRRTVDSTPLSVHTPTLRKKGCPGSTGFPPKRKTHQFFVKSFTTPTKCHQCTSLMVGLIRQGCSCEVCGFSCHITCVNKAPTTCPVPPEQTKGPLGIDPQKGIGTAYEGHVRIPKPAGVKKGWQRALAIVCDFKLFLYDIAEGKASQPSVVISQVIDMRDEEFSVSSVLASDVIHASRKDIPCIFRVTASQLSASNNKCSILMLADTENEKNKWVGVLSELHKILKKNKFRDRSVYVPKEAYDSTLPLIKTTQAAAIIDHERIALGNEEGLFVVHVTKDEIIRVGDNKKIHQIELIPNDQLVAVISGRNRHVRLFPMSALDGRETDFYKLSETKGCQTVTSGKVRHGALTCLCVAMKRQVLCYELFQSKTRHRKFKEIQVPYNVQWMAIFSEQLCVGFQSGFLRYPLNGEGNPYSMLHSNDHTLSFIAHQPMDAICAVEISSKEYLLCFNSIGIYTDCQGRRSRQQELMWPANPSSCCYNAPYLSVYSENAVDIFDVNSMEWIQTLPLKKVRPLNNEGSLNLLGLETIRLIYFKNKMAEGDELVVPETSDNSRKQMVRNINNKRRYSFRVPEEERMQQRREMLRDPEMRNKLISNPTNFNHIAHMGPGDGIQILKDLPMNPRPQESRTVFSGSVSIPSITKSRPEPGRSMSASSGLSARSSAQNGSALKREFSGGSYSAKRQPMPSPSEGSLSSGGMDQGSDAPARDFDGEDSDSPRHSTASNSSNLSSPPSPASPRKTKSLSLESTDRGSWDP
# T5 sequence (P29274 whole entry): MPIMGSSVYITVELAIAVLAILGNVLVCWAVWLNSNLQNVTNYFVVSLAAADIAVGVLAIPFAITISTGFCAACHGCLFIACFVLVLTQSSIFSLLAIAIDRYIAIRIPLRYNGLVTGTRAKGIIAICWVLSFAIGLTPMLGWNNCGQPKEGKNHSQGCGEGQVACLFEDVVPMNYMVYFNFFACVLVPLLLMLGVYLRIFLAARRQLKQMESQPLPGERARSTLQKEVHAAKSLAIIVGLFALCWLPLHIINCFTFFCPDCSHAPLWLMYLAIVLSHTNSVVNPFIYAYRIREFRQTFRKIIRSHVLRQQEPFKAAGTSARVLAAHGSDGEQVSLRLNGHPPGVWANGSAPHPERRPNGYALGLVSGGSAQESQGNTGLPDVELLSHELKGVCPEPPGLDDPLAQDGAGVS
# T34 sequence (P30556 whole entry): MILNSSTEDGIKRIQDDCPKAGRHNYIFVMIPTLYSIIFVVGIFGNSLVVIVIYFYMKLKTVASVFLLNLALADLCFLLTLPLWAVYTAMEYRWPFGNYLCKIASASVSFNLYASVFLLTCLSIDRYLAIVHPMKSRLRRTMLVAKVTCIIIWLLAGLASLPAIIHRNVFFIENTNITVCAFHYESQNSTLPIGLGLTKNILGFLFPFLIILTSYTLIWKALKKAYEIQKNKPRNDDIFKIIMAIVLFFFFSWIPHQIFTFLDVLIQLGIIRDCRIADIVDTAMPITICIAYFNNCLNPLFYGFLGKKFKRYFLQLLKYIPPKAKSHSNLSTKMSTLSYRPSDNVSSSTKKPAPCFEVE
# T40 sequence (Q16644 whole entry): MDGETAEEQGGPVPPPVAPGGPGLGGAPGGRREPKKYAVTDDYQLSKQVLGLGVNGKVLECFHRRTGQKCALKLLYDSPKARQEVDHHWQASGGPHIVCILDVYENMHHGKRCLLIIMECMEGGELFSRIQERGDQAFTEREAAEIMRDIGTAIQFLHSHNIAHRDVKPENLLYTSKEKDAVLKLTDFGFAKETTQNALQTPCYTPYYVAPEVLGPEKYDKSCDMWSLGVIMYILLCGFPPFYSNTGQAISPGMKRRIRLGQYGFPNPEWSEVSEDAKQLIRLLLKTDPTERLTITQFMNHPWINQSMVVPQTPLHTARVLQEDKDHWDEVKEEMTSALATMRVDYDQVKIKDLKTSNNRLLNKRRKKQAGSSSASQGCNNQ
# T36 sequence (P48039 whole entry): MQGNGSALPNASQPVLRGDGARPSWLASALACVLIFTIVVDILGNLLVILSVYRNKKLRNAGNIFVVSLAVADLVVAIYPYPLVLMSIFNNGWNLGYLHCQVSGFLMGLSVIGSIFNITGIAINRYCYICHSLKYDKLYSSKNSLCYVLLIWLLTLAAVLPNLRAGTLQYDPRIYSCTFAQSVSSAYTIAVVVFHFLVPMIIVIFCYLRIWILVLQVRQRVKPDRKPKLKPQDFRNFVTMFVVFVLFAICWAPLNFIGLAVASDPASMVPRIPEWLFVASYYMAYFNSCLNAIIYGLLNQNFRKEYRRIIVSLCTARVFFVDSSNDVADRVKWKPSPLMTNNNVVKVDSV
# T8 sequence (P36888 27-993): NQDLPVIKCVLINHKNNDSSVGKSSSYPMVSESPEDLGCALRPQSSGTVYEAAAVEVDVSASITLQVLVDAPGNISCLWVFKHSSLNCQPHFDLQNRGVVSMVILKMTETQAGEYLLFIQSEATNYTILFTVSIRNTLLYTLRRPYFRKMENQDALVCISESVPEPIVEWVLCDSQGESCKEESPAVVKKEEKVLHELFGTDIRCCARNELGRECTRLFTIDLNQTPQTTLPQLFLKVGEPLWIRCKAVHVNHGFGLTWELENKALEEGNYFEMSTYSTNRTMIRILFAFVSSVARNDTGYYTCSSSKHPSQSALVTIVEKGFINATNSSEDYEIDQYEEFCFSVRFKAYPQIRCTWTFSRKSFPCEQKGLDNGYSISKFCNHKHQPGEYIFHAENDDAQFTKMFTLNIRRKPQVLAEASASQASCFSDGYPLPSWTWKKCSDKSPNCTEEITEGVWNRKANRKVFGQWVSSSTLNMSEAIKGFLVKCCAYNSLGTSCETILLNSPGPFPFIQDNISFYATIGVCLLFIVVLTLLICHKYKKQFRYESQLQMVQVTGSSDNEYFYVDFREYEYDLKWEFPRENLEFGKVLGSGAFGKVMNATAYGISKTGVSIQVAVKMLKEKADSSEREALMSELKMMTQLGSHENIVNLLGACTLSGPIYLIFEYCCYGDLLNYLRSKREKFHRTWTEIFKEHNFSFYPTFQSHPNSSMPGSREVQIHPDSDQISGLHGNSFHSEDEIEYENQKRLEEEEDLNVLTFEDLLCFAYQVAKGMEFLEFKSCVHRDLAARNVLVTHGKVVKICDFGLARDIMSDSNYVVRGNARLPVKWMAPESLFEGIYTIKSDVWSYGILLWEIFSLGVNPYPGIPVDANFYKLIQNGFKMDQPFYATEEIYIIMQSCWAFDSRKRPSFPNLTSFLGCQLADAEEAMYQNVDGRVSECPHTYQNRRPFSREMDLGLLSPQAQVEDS
# T23 sequence (Q15349 whole entry): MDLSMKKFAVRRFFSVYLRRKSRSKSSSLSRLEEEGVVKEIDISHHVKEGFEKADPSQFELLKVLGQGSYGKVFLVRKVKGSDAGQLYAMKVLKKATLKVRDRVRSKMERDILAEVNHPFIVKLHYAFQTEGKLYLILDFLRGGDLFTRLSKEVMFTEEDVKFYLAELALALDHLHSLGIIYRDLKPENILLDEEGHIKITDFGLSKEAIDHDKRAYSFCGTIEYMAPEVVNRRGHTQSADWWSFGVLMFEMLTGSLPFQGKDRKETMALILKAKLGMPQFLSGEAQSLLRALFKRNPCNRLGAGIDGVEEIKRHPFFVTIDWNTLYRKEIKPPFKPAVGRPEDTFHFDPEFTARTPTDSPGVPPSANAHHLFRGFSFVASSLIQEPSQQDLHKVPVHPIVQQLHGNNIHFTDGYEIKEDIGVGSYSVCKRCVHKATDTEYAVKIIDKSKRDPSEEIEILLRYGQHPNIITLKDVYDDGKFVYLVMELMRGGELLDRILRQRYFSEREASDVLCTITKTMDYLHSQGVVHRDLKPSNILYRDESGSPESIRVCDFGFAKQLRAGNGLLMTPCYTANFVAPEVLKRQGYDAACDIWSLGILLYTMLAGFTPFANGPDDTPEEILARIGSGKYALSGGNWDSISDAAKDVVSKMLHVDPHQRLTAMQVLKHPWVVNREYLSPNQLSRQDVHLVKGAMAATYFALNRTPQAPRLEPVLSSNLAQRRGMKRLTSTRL
compound,measurement,setting,value
"Cn1cc(-c2ccc(-c3cncc(Cl)c3N3CCC4(CCNC4=O)CC3)cc2)cn1 [Compound 74, 8-(3-Chloro-5-(4-(1-methyl-1H-pyrazol-4-yl)phenyl)pyridin-4-yl)-2,8-diazaspiro[4.5]decan-1-one]",remaining activity at 1 µM,LOK,-6%
same,remaining activity at 1 µM,EGFR,10%
same,remaining activity at 1 µM,MELK,32%
same,remaining activity at 1 µM,EPHB2,7%
same,inhibition at 10 µM,A2A (h),22%
same,remaining activity at 1 µM,JNK3,-7%
same,remaining activity at 1 µM,EEF-2K,15%
same,remaining activity at 1 µM,FLT3,-9%
same,remaining activity at 1 µM,CDK3/CYCLINE,1%
same,remaining activity at 1 µM,CKIT,13%
same,remaining activity at 1 µM,ROS,7%
same,remaining activity at 1 µM,CDK2/CYCLINA,-8%
same,remaining activity at 1 µM,IRR,3%
same,% Inhibition of Control Specific Binding,CB1 (h),2%
same,remaining activity at 1 µM,SRPK2,-10%
same,remaining activity at 1 µM,ROCK-I,-1%
same,remaining activity at 1 µM,ASK1,-15%
same,remaining activity at 1 µM,FGFR1,-49%
same,remaining activity at 1 µM,NEK2,6%
same,inhibition at 10 µM,M1 (h),21%
same,remaining activity at 1 µM,PHKGAMMA2,4%
same,inhibition at 10 µM,NK2 (h),-17%
same,remaining activity at 1 µM,RSK3,-5%
same,remaining activity at 1 µM,PTK5,-18%
same,remaining activity at 1 µM,MKK7BETA,68%
same,remaining activity at 1 µM,BRSK2,-4%
same,remaining activity at 1 µM,FLT1,-5%
same,% Inhibition of Control Specific Binding,κ (KOP),72%
same,% Inhibition of Control Specific Binding,Na+ channel (site 2),29%
same,remaining activity at 1 µM,DAPK2,13%
same,inhibition at 10 µM,M3 (h),46%
same,remaining activity at 1 µM,MSSK1,-2%
same,remaining activity at 1 µM,TBK1,4%
same,remaining activity at 1 µM,FLT4,-23%
same,inhibition at 10 µM,AT1 (h),8%
same,remaining activity at 1 µM,TRKA,-7%
same,inhibition at 10 µM,MT1 (ML1A) (h),34%
same,remaining activity at 1 µM,WNK3,-25%
same,remaining activity at 1 µM,MRCKALPHA,-4%
same,remaining activity at 1 µM,PAK2,-7%
same,remaining activity at 1 µM,MAPKAP-K3,7%
same,remaining activity at 1 µM,GRK7,7%
same,remaining activity at 1 µM,CHK1,-17%
same,remaining activity at 1 µM,ALK4,-12%
